Target: T1, human recombinant full-length fatty acid synthase (FASN) (Homo sapiens, UniProt P49327)
T1 construct: 40 nM human recombinant full-length fatty acid synthase (produced in-house in SF9 cells); made in house; host or cells: SF9 insect cells
Assay: Biochemical activity testing of human fatty acid synthase FASN (NADPH fluorescence intensity enzyme assay)
Settings: human recombinant FASN, enzyme assay
Text: Biochemical Activity Testing of Human Fatty Acid Synthase FASN
Fatty acid synthase FASN is a multifunctional enzyme with seven catalytic activities thereby synthesising long chain fatty acids especially palmitoyl-CoA in the presence of co-factor NADPH starting from the substrates acetyl-CoA and malonyl-CoA. The reductive synthesis is realized by the oxidation of NADPH to NADP. Since NADPH has a high fluorescence intensity quantum yield compared to NADP with excitation at 340 nm and emission at 460 nm, the reaction can be monitored via the decrease in fluorescence intensity. The biochemical FASN activity testing was performed as 384 well two-time-point kinetic fluorescence intensity assay format in Greiner low volume medium binding 384-well black microtiter plates in a total assay volume of 8 μl and was used for high throughput screen. In each well 3 μl 40 nM human recombinant full-length fatty acid synthase (produced in-house in SF9 cells) were dispensed in the following assay buffer: 50 mM potassium phosphate buffer pH 7.0, 0.005% (w/v) BSA, 2 mM Glutathione, 0.02% Tween-20. Then 2 μl of 200 μM NADPH in assay buffer were added, followed by the addition of the test compounds in 10 dilution concentrations starting with 30 μM (final concentration) to get a final DMSO content of 1% (v/v). The mixture was incubated for at least 15 min at room temperature. After the pre-incubation the enzymatic reaction was started by the addition of 2 μl substrate solution (80 μM acetyl-CoA, 240 μM malonyl-CoA). A first fluorescence intensity measurement (time point one) was performed with an Envision multimode reader (Perkin Elmer LAS Germany GmbH) at excitation wavelength 340 nm (lamp mode) and emission wavelength 460 nm. The reaction was incubated for 30 minutes at room temperature. After this the fluorescence intensity was measured again in the Envision using the same parameters as described above (second time point measurement). The data were analysed by subtracting the first time point measurement value from the second time point measurement value (after the enzymatic reaction). The differences of the emission signals were determined. These reflect directly the conversion rate of NADPH. The full value used was the inhibitor-free reaction. A pharmacological zero value was used like GSK837149A (Sigma-Aldrich) in a final concentration of 5-10 μM. The inhibitory values (IC50) were determined using either the program Symyx Assay Explorer® or Condosseo® from GeneData.

T1 sequence (P49327 whole entry): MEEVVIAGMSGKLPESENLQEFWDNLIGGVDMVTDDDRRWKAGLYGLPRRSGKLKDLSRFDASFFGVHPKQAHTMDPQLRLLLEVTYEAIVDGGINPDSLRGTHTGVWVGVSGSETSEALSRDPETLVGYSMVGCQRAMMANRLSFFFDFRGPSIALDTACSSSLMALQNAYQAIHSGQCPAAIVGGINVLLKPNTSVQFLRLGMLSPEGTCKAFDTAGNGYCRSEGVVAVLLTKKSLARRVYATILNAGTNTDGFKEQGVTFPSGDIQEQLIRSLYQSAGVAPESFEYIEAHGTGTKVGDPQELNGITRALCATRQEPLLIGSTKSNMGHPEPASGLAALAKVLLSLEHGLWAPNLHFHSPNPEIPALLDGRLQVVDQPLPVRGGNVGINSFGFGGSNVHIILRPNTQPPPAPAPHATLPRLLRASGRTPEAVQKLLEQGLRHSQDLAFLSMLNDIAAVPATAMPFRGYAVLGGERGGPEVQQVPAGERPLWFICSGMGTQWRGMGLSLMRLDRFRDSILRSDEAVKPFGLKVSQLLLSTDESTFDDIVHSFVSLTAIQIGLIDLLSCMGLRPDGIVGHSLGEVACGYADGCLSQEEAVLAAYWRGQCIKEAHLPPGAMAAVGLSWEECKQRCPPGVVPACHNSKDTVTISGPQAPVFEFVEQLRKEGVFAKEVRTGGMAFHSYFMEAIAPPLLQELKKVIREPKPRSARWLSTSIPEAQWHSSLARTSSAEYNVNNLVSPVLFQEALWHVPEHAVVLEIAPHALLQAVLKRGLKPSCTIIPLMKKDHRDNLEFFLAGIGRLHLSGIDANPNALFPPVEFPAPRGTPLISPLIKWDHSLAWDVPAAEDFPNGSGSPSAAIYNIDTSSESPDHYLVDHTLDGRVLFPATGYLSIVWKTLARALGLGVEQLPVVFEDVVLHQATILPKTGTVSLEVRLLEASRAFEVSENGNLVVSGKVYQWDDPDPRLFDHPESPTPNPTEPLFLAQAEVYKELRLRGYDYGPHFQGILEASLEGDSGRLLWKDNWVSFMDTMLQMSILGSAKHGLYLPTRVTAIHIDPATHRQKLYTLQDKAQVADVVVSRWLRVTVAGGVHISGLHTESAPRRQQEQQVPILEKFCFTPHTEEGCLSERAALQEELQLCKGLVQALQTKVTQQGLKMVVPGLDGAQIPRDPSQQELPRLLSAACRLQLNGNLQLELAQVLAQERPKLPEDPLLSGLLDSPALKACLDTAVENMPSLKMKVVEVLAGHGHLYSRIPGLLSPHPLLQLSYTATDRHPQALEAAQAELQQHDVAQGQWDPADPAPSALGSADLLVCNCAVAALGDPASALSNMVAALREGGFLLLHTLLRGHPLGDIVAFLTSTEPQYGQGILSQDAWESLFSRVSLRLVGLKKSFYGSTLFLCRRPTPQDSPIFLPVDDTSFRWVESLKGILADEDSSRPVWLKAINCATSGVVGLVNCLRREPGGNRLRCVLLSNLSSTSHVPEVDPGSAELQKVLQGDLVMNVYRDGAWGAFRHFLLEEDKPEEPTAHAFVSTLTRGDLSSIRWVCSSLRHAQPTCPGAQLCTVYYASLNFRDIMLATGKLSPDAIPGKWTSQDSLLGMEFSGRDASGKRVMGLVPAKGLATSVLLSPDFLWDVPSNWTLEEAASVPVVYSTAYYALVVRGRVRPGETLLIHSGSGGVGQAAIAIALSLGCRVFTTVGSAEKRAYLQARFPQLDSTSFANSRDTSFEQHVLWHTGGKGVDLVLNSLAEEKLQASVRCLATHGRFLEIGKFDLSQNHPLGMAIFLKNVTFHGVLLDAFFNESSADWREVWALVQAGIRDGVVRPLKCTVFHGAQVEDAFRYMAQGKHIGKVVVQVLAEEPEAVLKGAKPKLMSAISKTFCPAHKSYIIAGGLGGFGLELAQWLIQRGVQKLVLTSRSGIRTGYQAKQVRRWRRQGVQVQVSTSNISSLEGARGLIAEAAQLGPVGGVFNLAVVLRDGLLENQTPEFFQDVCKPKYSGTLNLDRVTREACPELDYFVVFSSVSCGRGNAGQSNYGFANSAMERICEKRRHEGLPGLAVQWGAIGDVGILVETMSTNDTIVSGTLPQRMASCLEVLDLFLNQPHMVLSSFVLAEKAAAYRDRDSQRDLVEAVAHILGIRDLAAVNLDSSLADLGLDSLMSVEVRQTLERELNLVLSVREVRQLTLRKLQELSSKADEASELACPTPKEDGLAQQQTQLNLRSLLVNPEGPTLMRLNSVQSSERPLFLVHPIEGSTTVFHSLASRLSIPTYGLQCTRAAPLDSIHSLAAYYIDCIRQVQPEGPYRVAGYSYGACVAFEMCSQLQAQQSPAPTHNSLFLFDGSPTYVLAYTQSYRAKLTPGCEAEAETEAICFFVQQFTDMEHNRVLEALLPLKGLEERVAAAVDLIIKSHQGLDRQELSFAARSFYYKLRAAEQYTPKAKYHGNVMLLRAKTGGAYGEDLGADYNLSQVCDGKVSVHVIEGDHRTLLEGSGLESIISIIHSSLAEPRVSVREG

Row | Structure (SMILES) | IC50
1 | CCC(=O)N[C@H]1CC[C@@H](n2nncc2-c2ccc(-c3ccc(-n4cccn4)cc3)cc2)C1 [Compound A76, N-{(1S,3R)-3-[5-(4′-Pyrazol-1-yl-biphenyl-4-yl)-[1,2,3]triazol-1-yl]-cyclopentyl}-propionamide] | < 300 nM
2 | CCC(=O)N[C@H]1CC[C@@H](n2nncc2-c2ccc(-c3ccc4c(c3)N(C)C(=O)C4)cc2)C1 [Compound A77, N-((1S,3R)-3-{5-[4-(1-Methyl-2-oxo-2,3-dihydro-1H-indol-6-yl)-phenyl]-[1,2,3]triazol-1-yl}-cyclopentyl)-propionamide] | < 300 nM
3 | CCC(=O)N[C@H]1CC[C@@H](n2nncc2-c2ccc(-c3cc4cn[nH]c4cc3C)cc2)C1 [Compound A78, N-((1S,3R)-3-{5-[4-(6-Methyl-1H-indazol-5-yl)-phenyl]-[1,2,3]triazol-1-yl}-cyclopentyl)-propionamide] | < 300 nM
4 | CCC(=O)N[C@H]1CC[C@@H](n2nncc2-c2ccc(-c3ccc4c(c3)CC(=O)N4)cc2)C1 [Compound A79, N-((1S,3R)-3-{5-[4-(2-Oxo-2,3-dihydro-1H-indol-5-yl)-phenyl]-[1,2,3]triazol-1-yl}-cyclopentyl)-propionamide] | < 300 nM
5 | CCC(=O)N[C@H]1CC[C@@H](n2nncc2-c2ccc(-c3ccc(C#N)c(F)c3)cc2)C1 [Compound A80, N-{(1S,3R)-3-[5-(4′-Cyano-3′-fluoro-biphenyl-4-yl)-[1,2,3]triazol-1-yl]-cyclopentyl}-propionamide] | < 300 nM
6 | CCC(=O)N[C@H]1CC[C@@H](n2nncc2-c2ccc(-c3ccc(Cl)cc3F)cc2)C1 [Compound A81, N-{(1S,3R)-3-[5-(4′-Chloro-2′-fluoro-biphenyl-4-yl)-[1,2,3]triazol-1-yl]-cyclopentyl}-propionamide] | < 300 nM
7 | CCC(=O)N[C@H]1CC[C@@H](n2nncc2-c2ccc(-c3ccc(OC)cc3C)cc2)C1 [Compound A82, N-{(1S,3R)-3-[5-(4′-Methoxy-2′-methyl-biphenyl-4-yl)-[1,2,3]triazol-1-yl]-cyclopentyl}-propionamide] | < 300 nM
8 | CCC(=O)N[C@H]1CC[C@@H](n2nncc2-c2ccc(-c3ccc(C)c(F)c3)cc2)C1 [Compound A83, N-{(1S,3R)-3-[5-(3′-Fluoro-4′-methyl-biphenyl-4-yl)-[1,2,3]triazol-1-yl]-cyclopentyl}-propionamide] | < 300 nM
9 | CCC(=O)N[C@H]1CC[C@@H](n2nncc2-c2ccc(-c3ccc(C)cc3)cc2)C1 [Compound A84, N-{(1S,3R)-3-[5-(4′-Methyl-biphenyl-4-yl)-[1,2,3]triazol-1-yl]-cyclopentyl}-propionamide] | < 300 nM
10 | CCC(=O)N[C@H]1CC[C@@H](n2nncc2-c2ccc(-c3ccc(F)c(Cl)c3)cc2)C1 [Compound A85, N-{(1S,3R)-3-[5-(3′-Chloro-4′-fluoro-biphenyl-4-yl)-[1,2,3]triazol-1-yl]-cyclopentyl}-propionamide] | < 300 nM
11 | CCC(=O)N[C@H]1CC[C@@H](n2nncc2-c2ccc(-c3ccc(OC)cc3OC)cc2)C1 [Compound A86, N-{(1S,3R)-3-[5-(2′,4′-Dimethoxy-biphenyl-4-yl)-[1,2,3]triazol-1-yl]-cyclopentyl}-propionamide] | < 300 nM
12 | CCC(=O)N[C@H]1CC[C@@H](n2nncc2-c2ccc(-c3ccc4[nH]c(=O)[nH]c4c3)cc2)C1 [Compound A87, N-((1S,3R)-3-{5-[4-(2-Oxo-2,3-dihydro-1H-benzimidazol-5-yl)-phenyl]-[1,2,3]triazol-1-yl}-cyclopentyl)-propionamide] | < 300 nM
13 | CCC(=O)N[C@H]1CC[C@@H](n2nncc2-c2ccc(-c3ccc(OC)c(OC)c3)cc2)C1 [Compound A88, N-{(1S,3R)-3-[5-(3′,4′-Dimethoxy-biphenyl-4-yl)-[1,2,3]triazol-1-yl]-cyclopentyl}-propionamide] | < 300 nM
14 | CCC(=O)N[C@H]1CC[C@@H](n2nncc2-c2ccc(-c3ccc(C)cc3C)cc2)C1 [Compound A89, N-{(1S,3R)-3-[5-(2′,4′-Dimethyl-biphenyl-4-yl)-[1,2,3]triazol-1-yl]-cyclopentyl}-propionamide] | < 300 nM
15 | CC1(C)OC[C@@H](C(=O)N[C@H]2CC[C@@H](n3nncc3-c3ccc(-c4nc5ccccc5o4)cc3)C2)O1 [Compound A90, (S)-2,2-Dimethyl-[1,3]dioxolane-4-carboxylic acid {(1S,3R)-3-[5-(4-benzoxazol-2-yl-phenyl)-[1,2,3]triazol-1-yl]-cyclopentyl}-amide] | < 300 nM
16 | CCC(=O)N[C@H]1CC[C@@H](n2nncc2-c2ccc(-c3ccc4c(c3)NC(=O)C4)cc2)C1 [Compound A91, N-((1S,3R)-3-{5-[4-(2-Oxo-2,3-dihydro-1H-indol-6-yl)-phenyl]-[1,2,3]triazol-1-yl}-cyclopentyl)-propionamide] | < 300 nM
17 | CCC(=O)N[C@H]1CC[C@@H](n2nncc2-c2ccc(-c3ccc(OCC4CC4)cc3)cc2)C1 [Compound A92, N-{(1S,3R)-3-[5-(4′-Cyclopropylmethoxy-biphenyl-4-yl)-[1,2,3]triazol-1-yl]-cyclopentyl}-propionamide] | < 300 nM
18 | O=C(N[C@H]1CC[C@@H](n2nncc2-c2ccc(-c3nc4ccccc4o3)cc2)C1)[C@@H](O)CO [Compound A93, (S)—N-{(1S,3R)-3-[5-(4-Benzoxazol-2-yl-phenyl)-[1,2,3]triazol-1-yl]-cyclopentyl}-2,3-dihydroxy-propionamide] | 300 to 3000 nM
19 | CCC(=O)N[C@H]1CC[C@@H](n2cnnc2-c2ccc(-c3ccc(OC)cc3C)cc2)C1 [Compound A94, N-{(1S,3R)-3-[3-(4′-Methoxy-2′-methyl-biphenyl-4-yl)-[1,2,4]triazol-4-yl]-cyclopentyl}-propionamide] | < 300 nM
20 | CCC(=O)N[C@H]1CC[C@@H](n2cnnc2-c2ccc(-c3ccc(Cl)c(F)c3)cc2)C1 [Compound A95, N-{(1S,3R)-3-[3-(4′-Chloro-3′-fluoro-biphenyl-4-yl)[1,2,4]triazol-4-yl]-cyclopentyl}-propionamide] | < 300 nM
21 | CCC(=O)N[C@H]1CC[C@@H](n2cnnc2-c2ccc(-c3ccc(-n4cccn4)cc3)cc2)C1 [Compound A96, N-{(1S,3R)-3-[3-(4′-Pyrazol-1-yl-biphenyl-4-yl)[1,2,4]triazol-4-yl]-cyclopentyl}-propionamide] | < 300 nM
22 | CCC(=O)N[C@H]1CC[C@@H](n2cnnc2-c2ccc(-c3ccc4c(ccn4C)c3)cc2)C1 [Compound A97, N-((1S,3R)-3-{3-[4-(1-Methyl-1H-indol-5-yl)-phenyl]-[1,2,4]triazol-4-yl}-cyclopentyl)-propionamide] | < 300 nM
23 | CCC(=O)N[C@H]1CC[C@@H](n2cnnc2-c2ccc(-c3cc4cn[nH]c4cc3C)cc2)C1 [Compound A98, N-((1S,3R)-3-{3-[4-(6-Methyl-1H-indazol-5-yl)-phenyl]-[1,2,4]triazol-4-yl}-cyclopentyl)-propionamide] | < 300 nM
24 | CCNC(=O)[C@H]1CC[C@@H](n2nncc2-c2ccc(-c3ccc(C(N)=O)cc3)cc2)C1 [Compound A99, 4′-[3-((1R,3S)-3-Ethylcarbamoyl-cyclopentyl)-3H-[1,2,3]triazol-4-yl]-biphenyl-4-carboxylic acid amide] | 300 to 3000 nM
25 | CCNC(=O)[C@H]1CC[C@@H](n2nncc2-c2ccc(-c3ccc(C(=O)O)cc3)cc2)C1 [Compound A100, 4′-[3-((1R,3S)-3-Ethylcarbamoyl-cyclopentyl)-3H-[1,2,3]triazol-4-yl]-biphenyl-4-carboxylic acid] | 300 to 3000 nM
26 | CCNC(=O)[C@H]1CC[C@@H](n2nncc2-c2ccc(-c3ccc(OC)c(OC)c3)cc2)C1 [Compound A102, (1S,3R)-3-[5-(3′,4′-Dimethoxy-biphenyl-4-yl)-[1,2,3]triazol-1-yl]-cyclopentanecarboxylic acid ethylamide] | < 300 nM
27 | CCNC(=O)[C@H]1CC[C@@H](n2nncc2-c2ccc(-c3ccc(OCC4CC4)cc3)cc2)C1 [Compound A103, (1S,3R)-3-[5-(4′-Cyclopropylmethoxy-biphenyl-4-yl)-[1,2,3]triazol-1-yl]-cyclopentanecarboxylic acid ethylamide] | < 300 nM
28 | CCNC(=O)[C@H]1CC[C@@H](n2nncc2-c2ccc(-c3ccc(Cl)c(F)c3)cc2)C1 [Compound A104, (1S,3R)-3-[5-(4′-Chloro-3′-fluoro-biphenyl-4-yl)-[1,2,3]triazol-1-yl]-cyclopentanecarboxylic acid ethylamide] | < 300 nM
29 | CCNC(=O)[C@H]1CC[C@@H](n2nncc2-c2ccc(-c3ccc(C#N)c(F)c3)cc2)C1 [Compound A105, (1S,3R)-3-[5-(4′-Cyano-3′-fluoro-biphenyl-4-yl)-[1,2,3]triazol-1-yl]-cyclopentanecarboxylic acid ethylamide] | < 300 nM

From patent publication US9718785B2, “1,3-Disubstituted cyclopentane derivatives” (MERCK PATENT GMBH, priority 2013, dated 2017)
